Assay: wn = mass fraction of the nth substance listed
Details: 101 kPa, Liquid, controlled-strain rheometer (ARES-RFS, TA Instruments)

OC[C@H]1O[C@@](CO)(O[C@H]2O[C@H](CO)[C@@H](O)[C@H](O)[C@H]2O)[C@@H](O)[C@@H]1O [D-sucrose] + O
viscosity [mPa·s]
Details | w1 = 0.05 | w1 = 0.1 | w1 = 0.2 | w1 = 0.3 | w1 = 0.4 | w1 = 0.5 | w1 = 0.6
268.15 K | – | – | – | – | 25.48 | 92.4 | 491.8
273.15 K | 2.45 | 2.978 | 4.42 | 7.19 | 19.81 | 66.8 | 316.5
278.15 K | 1.91 | 2.472 | 3.48 | 5.99 | 14.22 | 42.93 | 228.9
283.15 K | 1.72 | 2.02 | 3.01 | 5.06 | 11.31 | 31.33 | 153.1
293.15 K | 1.246 | 1.48 | 2.38 | 3.46 | 7.53 | 20.09 | 83.9

O=C[C@H](O)[C@@H](O)[C@H](O)[C@H](O)CO [D-glucose] + O
viscosity [mPa·s]
Details | w1 = 0.05 | w1 = 0.1 | w1 = 0.2 | w1 = 0.3 | w1 = 0.4 | w1 = 0.5
268.15 K | – | – | – | – | – | 50.8
273.15 K | 2.39 | 2.908 | 4.3 | 8.17 | 15.28 | 37.31
278.15 K | 1.98 | 2.47 | 3.46 | 5.94 | 11.19 | 26.54
283.15 K | 1.76 | 2.02 | 2.93 | 4.83 | 9.63 | 20.52
293.15 K | 1.36 | 1.58 | 2.13 | 3.46 | 6.21 | 13.43

O=C[C@H](O)[C@@H](O)[C@@H](O)[C@H](O)CO [(+)-galactose] + O
viscosity [mPa·s]
Details | w1 = 0.05 | w1 = 0.1 | w1 = 0.15 | w1 = 0.2 | w1 = 0.3 | w1 = 0.4
268.15 K | – | – | – | – | 8.95 | 18.84
273.15 K | 2.42 | 2.779 | 3.325 | 4.27 | 6.93 | 14.56
278.15 K | 2.077 | 2.4 | 2.77 | 3.37 | 5.34 | 11.17
283.15 K | 1.699 | 2.107 | 2.469 | 2.76 | 4.57 | 9
293.15 K | 1.397 | 1.52 | 1.77 | 2.1 | 3.27 | 6.11

O=C(CO)[C@@H](O)[C@H](O)[C@H](O)CO [D-fructose] + O
viscosity [mPa·s]
Details | w1 = 0.05 | w1 = 0.1 | w1 = 0.2 | w1 = 0.3 | w1 = 0.4 | w1 = 0.5 | w1 = 0.6 | w1 = 0.7
263.15 K | – | – | – | – | – | – | – | 4270
268.15 K | – | – | – | 7.97 | 18.51 | 54.8 | 238 | 2446
273.15 K | 2.345 | 2.89 | 4.2 | 6.39 | 14.02 | 35.06 | 148.7 | 1418
278.15 K | 1.999 | 2.44 | 3.39 | 5.5 | 10.84 | 25.27 | 103.4 | 843
283.15 K | 1.681 | 1.991 | 2.859 | 4.45 | 8.07 | 19.44 | 72 | 509.4
293.15 K | 1.26 | 1.43 | 2.092 | 3.07 | 5.67 | 14.33 | 38.31 | 220.7
